18 compounds from patent US20120095055A1, “HEXAHYDROCYCLOPENTYL[f]INDAZOLE 5-HYDROXYMETHYL ETHANOLS AND DERIVATIVES THEREOF AS SELECTIVE GLUCOCORTICOID RECEPTOR MODULATORS” (Merck Sharp & Dohme, Corp., priority 2009, published 2012) can be followed below.

Molecules are shown by their SMILES.

The assay concerns the target T1, glucocorticoid receptor (GR) (Homo sapiens, UniProt P04150).
T1 construct: endogenous in cells; host or cells: HeLa (ATCC) cell lysate supernatant
T1 sequence (P04150 1-777): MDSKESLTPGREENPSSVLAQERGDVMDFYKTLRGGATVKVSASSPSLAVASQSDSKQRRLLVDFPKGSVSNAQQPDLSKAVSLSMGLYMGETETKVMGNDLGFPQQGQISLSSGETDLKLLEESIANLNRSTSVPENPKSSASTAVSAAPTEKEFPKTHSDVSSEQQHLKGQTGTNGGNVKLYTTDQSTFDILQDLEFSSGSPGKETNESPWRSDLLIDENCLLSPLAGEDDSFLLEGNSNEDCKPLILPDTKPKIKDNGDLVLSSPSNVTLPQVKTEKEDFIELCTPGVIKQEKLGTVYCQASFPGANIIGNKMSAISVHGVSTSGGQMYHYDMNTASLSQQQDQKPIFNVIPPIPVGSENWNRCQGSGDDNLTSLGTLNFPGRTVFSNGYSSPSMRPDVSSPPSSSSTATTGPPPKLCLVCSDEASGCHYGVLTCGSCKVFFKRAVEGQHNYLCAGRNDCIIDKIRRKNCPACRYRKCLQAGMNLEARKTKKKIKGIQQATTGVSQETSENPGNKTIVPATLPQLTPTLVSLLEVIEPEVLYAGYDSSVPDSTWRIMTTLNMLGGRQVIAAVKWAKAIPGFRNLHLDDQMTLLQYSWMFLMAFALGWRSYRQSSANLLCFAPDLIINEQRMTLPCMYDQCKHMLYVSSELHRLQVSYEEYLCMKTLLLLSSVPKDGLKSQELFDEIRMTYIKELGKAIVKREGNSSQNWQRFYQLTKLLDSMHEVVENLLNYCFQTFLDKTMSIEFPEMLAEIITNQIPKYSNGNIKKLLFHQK
Description: GR Ligand Binding Assay (3H-dexamethasone displacement, HeLa cell lysate). To be noted: 3H-DEX trace, DEX as reference, read-out: GR BIND Ki. The procedure:
Binding Buffer: TEGM (10 mM Tris-HCl, 1 mM EDTA, 10% glycerol, 1 mM beta-mecaptoethanol, 10 mM Sodium Molybdate, pH 7.2)
Dexmethasone-methyl-^3H, (DEX*); (Amersham cat# TRK645) Dexamethasone(DEX) (Sigma, cat# D1756):
Cells (Hall R. E., et al., European Journal of Cancer, 30A: 484-490 (1994)) HeLa (ATCC) cultured in RPMI 1640 (Gibco 11835-055) containing 20 mM Hepes, 4 mM L-glu, 10 ug/ml of human insulin (Sigma, I-0259), 10% FBS and 20 ug/ml of Gentamicin (Gibco#15710-072) are rinsed twice in PBS. Phenol red-free Trypsin-EDTA is diluted in the same PBS 1:10. The cell layers are rinsed with 1× Trypsin, extra Trypsin is poured out, and the cell layers are incubated at 37° C. for ˜2 min. The flask is tapped and checked for signs of cell detachment. Once the cells begin to slide off the flask, the complete media is added. The cells are counted at this point, then diluted to the appropriate concentration and split into flasks or dishes for further culturing (Usually 1:3 to 1:6 dilution).
When the cells are 70 to 85% confluent, they are detached as described above, and collected by centrifuging at 1000 g for 10 minutes at 4° C. The cell pellet is washed twice with TEGM (10 mM Tris-HCl, 1 mM EDTA, 10% glycerol, 1 mM beta-mercaptoethanol, 10 mM Sodium Molybdate, pH 7.2). After the final wash, the cells are resuspended in TEGM at a concentration of 10^7 cells/mL. The cell suspension is snap frozen in liquid nitrogen or ethanol/dry ice bath and transferred to −80° C. freezer on dry ice. Before setting up the binding assay, the frozen samples are left on ice-water to just thaw (˜1 hr). Then the samples are centrifuged at 12,500 g to 20,000 g for 30 min at 4° C. The supernatant is used to set-up assay right away. If using 50 μL of supernatant, the test compound can be prepared in 50 μL of the TEGM buffer.
1×TEGM buffer is prepared, and the isotope-containing assay mixture is prepared in the following order: EtOH (2% final concentration in reaction), ^3H-DEX (Amersham Biosciences) and 1×TEGM. [e.g. For 100 samples, 200 μL (100×2) of EtOH+4.25 μL of 1:10 ^3H—Dex stock+2300 μL (100×23) 1×TEGM]. The compound is serially diluted, e.g., if starting final conc. is 1 μM, and the compound is in 25 μL of solution, for duplicate samples, 75 μL of 4×1 μM solution is made and 3 μL of 100 μM is added to 72 μL of buffer, and 1:5 serial dilution.
25 μL, of 3H-DEX (6 nM) trace and 25 μL compound solution are first mixed together, followed by addition of 50 μL receptor solution. The reaction is gently mixed, spun briefly at about 200 rpm and incubated at 4° C. overnight. 100 μL of 50% HAP slurry is prepared and added to the incubated reaction which is then vortexed and incubated on ice for 5 to 10 minutes. The reaction mixture is vortexed twice more to resuspend HAP while incubating reaction. The samples in 96-well format are then washed in wash buffer using The FilterMate™ Universal Harvester plate washer (Packard). The washing process transfers HAP pellet containing ligand-bound expressed receptor to Unifilter-96 GF/B filter plate (Packard). The HAP pellet on the filter plate is incubated with 50 μL of MICROSCINT (Packard) scintillint for 30 minutes before being counted on the TopCount microscintillation counter (Packard). IC50s are calculated using DEX as a reference.
For the compound `C[C@]12Cc3cnn(-c4ccc(F)cc4)c3C=C1CC[C@@]2(CO)CC(O)C1CCCCC1` (single isomer, unassigned) [Example 18a, 1-cyclohexyl-2-[(4αS)-1-(4-fluorophenyl)-5-(hydroxymethyl)-4α-methyl-1,4,4α,5,6,7-hexahydrocyclopenta[f]indazol-5-yl]ethanol], the Ki – broadly, a dissociation constant, usually derived from enzyme kinetics or from competition with a known ligand – worked out at 1.7 nM.

On to `Cc1cccc(C(O)C[C@]2(CO)CCC3=Cc4c(cnn4-c4ccc(F)cc4)C[C@@]32C)c1` (single isomer, unassigned) [Example 5b], for which the Ki was 0.9 nM.

For `Cc1ccc(C(O)C[C@]2(CO)CCC3=Cc4c(cnn4-c4ccc(F)cc4)C[C@@]32C)cc1` (single isomer, unassigned) [Example 2a], the inhibitory constant (Ki) was 2.2 nM.

Regarding `CC(C)C(O)C[C@]1(CO)CCC2=Cc3c(cnn3-c3ccc(F)cc3)C[C@@]21C` (single isomer, unassigned) [Example 14a], the inhibitory constant (Ki) was found to be 6.4 nM.

In the case of `C[C@]12Cc3cnn(-c4ccccc4)c3C=C1CC[C@@]2(CO)CC(O)c1ccccn1` (single isomer, unassigned) [Example 23a], the Ki was determined as 7.7 nM.

For `C[C@]12Cc3cnn(-c4ccc(F)cc4)c3C=C1CC[C@@]2(CO)CC1OC(=O)c2ccccc21` (single isomer, unassigned) [Example 12b], the Ki stood at 1.5 nM.

On to `C[C@]12Cc3cnn(-c4ccccc4)c3C=C1CC[C@@]2(CO)CC(O)c1cccnc1` (single isomer, unassigned) [Example 29a], for which the Ki turned out to be 11.8 nM.

For `C[C@]12Cc3cnn(-c4ccc(F)cc4)c3C=C1CC[C@@]2(CO)CC(O)c1ccccn1` (single isomer, unassigned) [Example 1a], the Ki was determined as 5.2 nM.

`C[C@]12Cc3cnn(-c4cccc(F)c4)c3C=C1CC[C@@]2(CO)CC(O)c1cccnc1` (single isomer, unassigned) [Example 27b]: the Ki is 13.4 nM.

Take `C[C@]12Cc3cnn(-c4ccc(F)cc4)c3C=C1CC[C@@]2(CO)CC(O)c1cc(F)cc(Cl)c1` (single isomer, unassigned) [Example 6a]: the Ki is 1.1 nM.

As for `C[C@]12Cc3cnn(-c4ccc(F)cc4)c3C=C1CC[C@@]2(CO)CC1OC(=O)c2ccccc21` (stereo partly drawn) [Example 11, 3-{[(4αS,5R)-1-(4-fluorophenyl)-5-(hydroxymethyl)-4α-methyl-1,4,4α,5,6,7,7a,8-octahydrocyclopenta[f]indazol-5-yl]methyl}-2-benzofuran-1(3H)-one], the Ki turned out to be 19.2 nM.

Consider `C[C@]12Cc3cnn(-c4ccc(F)cc4)c3C=C1CC[C@@]2(CO)CC1OC(=O)c2ccccc21` (single isomer, unassigned) [Example 12a], for which the Ki is 2.6 nM.

For the compound `C[C@]12Cc3cnn(-c4ccc(F)cc4)c3C=C1CC[C@@]2(CO)CC(O)C1CCCCC1` (single isomer, unassigned) [Example 18b, 1-cyclohexyl-2-[(4αS)-1-(4-fluorophenyl)-5-(hydroxymethyl)-4α-methyl-1,4,4α,5,6,7-hexahydrocyclopenta[f]indazol-5-yl]ethanol], the Ki is 2.3 nM.

Consider `COc1cccnc1C(O)C[C@]1(CO)CCC2=Cc3c(cnn3-c3cccc(F)c3)C[C@@]21C` (single isomer, unassigned) [Example 26a], for which the Ki was 8.6 nM.

As to `C[C@]12Cc3cnn(-c4ccc(F)cc4)c3C=C1CC[C@@]2(CO)CC(O)c1cc(F)cc(F)c1` (stereo partly drawn) [Example 9, 1-(3,5-difluorophenyl)-2-[(4αS,5R)-1-(4-fluorophenyl)-5-(hydroxymethyl)-4α-methyl-1,4,4α,5,6,7-hexahydrocyclopenta[f]indazol-5-yl]ethanol], the Ki turned out to be 2.1 nM.

For the compound `CC(O)(C[C@]1(CO)CCC2=Cc3c(cnn3-c3ccc(F)cc3)C[C@@]21C)c1cccnc1` (single isomer, unassigned) [Example 25a], the Ki is 26.3 nM.

For the compound `C[C@]12Cc3cnn(-c4ccc(F)cc4)c3C=C1CC[C@@]2(CO)CC(O)C(F)(F)F` (single isomer, unassigned) [Example 28a], the Ki was 8.3 nM.

On to `C[C@]12Cc3cnn(-c4ccc(F)cc4)c3C=C1CC[C@@]2(CO)CC(O)c1ccccn1` (single isomer, unassigned) [Example 1b], for which the inhibition constant Ki stood at 4 nM.
